Reference: ChEMBL document CHEMBL1128090, “Substituted 2,4-diaminoquinazolines and 2,4-diamino-8-alkylpurines as antagonists of the neurokinin-2 (NK2) receptor” (Bioorg Med Chem Lett, 1995)

What was measured:
Cavia porcellus = species: Cavia porcellus; assay: Compound was tested for the inhibition of contraction induced by [b-Ala8-NKA(4-10)] in guinea pig trachea; assay type: functional
Substance-K receptor [1] = biological target: T1, Substance-K receptor (Homo sapiens, UniProt P21452); assay: Displacement of [3H]NKA from the cloned human Tachykinin receptor 2 which has been expressed in baculovirus infected insect sf21 cells
T1 sequence (P21452 whole entry): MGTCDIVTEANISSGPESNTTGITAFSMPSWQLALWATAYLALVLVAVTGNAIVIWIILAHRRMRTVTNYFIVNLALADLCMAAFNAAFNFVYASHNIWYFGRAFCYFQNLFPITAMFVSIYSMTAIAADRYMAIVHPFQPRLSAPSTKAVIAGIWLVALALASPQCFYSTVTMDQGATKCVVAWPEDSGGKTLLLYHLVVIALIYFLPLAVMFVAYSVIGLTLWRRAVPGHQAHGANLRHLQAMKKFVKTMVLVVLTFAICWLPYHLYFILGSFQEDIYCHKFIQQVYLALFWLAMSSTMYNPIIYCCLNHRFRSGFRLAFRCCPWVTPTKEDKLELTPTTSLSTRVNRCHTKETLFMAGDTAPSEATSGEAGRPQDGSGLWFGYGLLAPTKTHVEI

Substance-K receptor [2] = biological target: T2, Substance-K receptor (Mesocricetus auratus, UniProt P51144); assay: Inhibition constant for displacement of [3H]NKA from Tachykinin receptor 2 found in hamster urinary bladder membrane (HUBM); assay type: cell membranes
T2 sequence (P51144 whole entry): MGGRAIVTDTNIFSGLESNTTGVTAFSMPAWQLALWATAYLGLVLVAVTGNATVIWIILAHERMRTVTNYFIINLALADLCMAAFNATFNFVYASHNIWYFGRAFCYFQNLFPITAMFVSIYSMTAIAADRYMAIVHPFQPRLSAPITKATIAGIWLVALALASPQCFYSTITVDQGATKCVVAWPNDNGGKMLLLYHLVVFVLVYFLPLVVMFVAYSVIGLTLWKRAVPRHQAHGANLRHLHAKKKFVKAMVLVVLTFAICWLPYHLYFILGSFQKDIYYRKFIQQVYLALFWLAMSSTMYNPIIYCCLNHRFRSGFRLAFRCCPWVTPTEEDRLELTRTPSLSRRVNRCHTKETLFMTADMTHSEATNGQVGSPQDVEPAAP

Substance-K receptor [3] = biological target: T1, Substance-K receptor; assay: Inhibition constant for displacement of [3H]NKA from the cloned human NK2 receptor
Substance-K receptor [4] = biological target: T1, Substance-K receptor; assay: Inhibition constant for displacement of [3H]-NKA from the cloned human NK2 receptor which has been expressed in baculovirus infected insect sf21 cells

Compound	Ki (Substance-K receptor [1]) [µM]	Ki (Substance-K receptor [2]) [µM]	other results
CC(C)c1nc2[nH]c(N3CCC4(CC3)OCCO4)nc(Nc3ccc(Cl)cc3)c-2n1	4.36	–	–
CC(C)c1nc2[nH]c(N3CCC(=O)CC3)nc(Nc3ccc(Cl)cc3)c-2n1	5.89	–	–
CC(C)c1nc2nc(N3CCC(O)(c4ccccc4)CC3)nc(Nc3ccc(Cl)cc3)c2[nH]1	2.24	–	Kb (Cavia porcellus): 100 µM
CC(C)c1nc2[nH]c(NCCCN)nc(Nc3ccc(Cl)cc3)c-2n1	2.55	–	–
CC(C)c1nc2nc(N3CCOCC3)nc(Nc3ccc(C(F)(F)F)cc3)c2[nH]1	2.85	–	Kb (Cavia porcellus): > 100 µM
CC(C)c1nc2[nH]c(NCc3ccccc3)nc(Nc3ccc(Cl)cc3)c-2n1	5.58	–	–
Clc1ccc(Nc2nc(N3CCOCC3)nc3ccccc23)cc1	–	29.5	–
CC(C)NC(=O)c1ccc2c(Nc3ccc(Cl)cc3)nc(N3CCOCC3)nc2c1	–	58.7	–
CCCc1nc2nc(N3CCOCC3)nc(Nc3ccc(Cl)cc3)c2[nH]1	–	0.054	Ki (Substance-K receptor [3]): 2.34 µM

Second part, led by results:

Ki (Substance-K receptor [1]) [µM]	Ki (Substance-K receptor [2]) [µM]	Compound	other results
1.77	–	CC(C)c1nc2nc(N3CCC(O)CC3)nc(Nc3ccc(C(F)(F)F)cc3)c2[nH]1	Kb (Cavia porcellus): > 100 µM
–	20.3	O=C(O)c1ccc2c(Nc3ccc(Cl)cc3)nc(N3CCOCC3)nc2c1	–
3.49	–	CCCNc1nc(Nc2ccc(Cl)cc2)c2[nH]c(C(C)C)nc2n1	–
–	0.82	COC(=O)c1ccc2c(Nc3ccc(Cl)cc3)nc(N3CCOCC3)nc2c1	–
–	0.52	CCc1nc2nc(N3CCOCC3)nc(Nc3ccc(Cl)cc3)c2[nH]1	Ki (Substance-K receptor [3]): 6.94 µM
3.44	–	COC1(OC)CCN(c2nc(Nc3ccc(Cl)cc3)c3[nH]c(C(C)C)nc3n2)CC1	–
2.1	–	CC(C)c1nc2nc(N3CCC(C)(O)CC3)nc(Nc3ccc(Cl)cc3)c2[nH]1	Kb (Cavia porcellus): 10.7 µM
–	6.6	Cc1nc2[nH]c(N3CCOCC3)nc(Nc3ccc(Cl)cc3)c-2n1	Ki (Substance-K receptor [3]): 17.5 µM
–	0.067	CC(C)c1nc2[nH]c(N3CCOCC3)nc(Nc3ccc(Cl)cc3)c-2n1	Kb (Cavia porcellus): 70.8 µM; Ki (Substance-K receptor [4]): 3.07 µM
–	0.015	CC(C)N1Cc2c(Nc3ccc(Cl)cc3)nc(N3CCOCC3)nc2C1=O	Ki (Substance-K receptor [3]): 0.55 µM
